Assay results: ChEMBL document CHEMBL3864179, “Development of 1H-Pyrazolo[3,4-b]pyridines as Metabotropic Glutamate Receptor 5 Positive Allosteric Modulators” (ACS Med Chem Lett, 2016)

Legend:
[1] = Plasma concentration in C57Bl/6 mouse at 30 mg/kg, ip measured after 60 mins; type: ADME, organism-based
[2] = Ratio of drug level in brain to plasma in C57Bl/6 mouse at 30 mg/kg, ip; type: ADME, organism-based; details: read-out: BPR

Question: What does the source list for `N#Cc1c(-c2ccccc2)nc2[nH]nc(-c3ccc(Cl)c(C(F)(F)F)c3)c2c1C1CC1`?
Answer: concentration at 1 h [1]: 2800 nM; Kp [2]: 0.5
